Molecular target: T1, N-type calcium channel (NTCC) (Homo sapiens, UniProt Q00975)
T1 construct: host or cells: IMR32 cells differentiated with dibutyryl cAMP and bromodeoxyuridine
Assay: FLIPR calcium mobilization assay for N-type calcium channel (differentiated IMR32 cells)
Type: cell-based
Conditions: about 1.0 μM or less; calcium mobilization and/or electrophysiological assay
Outline: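 Human IMR32 cells differentiated 8 days (1 mM dibutyryl cAMP, 2.5 μM BrdU), pre-stimulated 1 h with 90 mM KCl plus compound (~846 pM–17 μM) and 5 μM nitrendipine, Fluo-4 loaded. FLIPR read basal fluorescence 315 s, then 90 mM KCl agonist added and fluorescence recorded 45 s; non-linear regression.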

T1 sequence (Q00975 whole entry): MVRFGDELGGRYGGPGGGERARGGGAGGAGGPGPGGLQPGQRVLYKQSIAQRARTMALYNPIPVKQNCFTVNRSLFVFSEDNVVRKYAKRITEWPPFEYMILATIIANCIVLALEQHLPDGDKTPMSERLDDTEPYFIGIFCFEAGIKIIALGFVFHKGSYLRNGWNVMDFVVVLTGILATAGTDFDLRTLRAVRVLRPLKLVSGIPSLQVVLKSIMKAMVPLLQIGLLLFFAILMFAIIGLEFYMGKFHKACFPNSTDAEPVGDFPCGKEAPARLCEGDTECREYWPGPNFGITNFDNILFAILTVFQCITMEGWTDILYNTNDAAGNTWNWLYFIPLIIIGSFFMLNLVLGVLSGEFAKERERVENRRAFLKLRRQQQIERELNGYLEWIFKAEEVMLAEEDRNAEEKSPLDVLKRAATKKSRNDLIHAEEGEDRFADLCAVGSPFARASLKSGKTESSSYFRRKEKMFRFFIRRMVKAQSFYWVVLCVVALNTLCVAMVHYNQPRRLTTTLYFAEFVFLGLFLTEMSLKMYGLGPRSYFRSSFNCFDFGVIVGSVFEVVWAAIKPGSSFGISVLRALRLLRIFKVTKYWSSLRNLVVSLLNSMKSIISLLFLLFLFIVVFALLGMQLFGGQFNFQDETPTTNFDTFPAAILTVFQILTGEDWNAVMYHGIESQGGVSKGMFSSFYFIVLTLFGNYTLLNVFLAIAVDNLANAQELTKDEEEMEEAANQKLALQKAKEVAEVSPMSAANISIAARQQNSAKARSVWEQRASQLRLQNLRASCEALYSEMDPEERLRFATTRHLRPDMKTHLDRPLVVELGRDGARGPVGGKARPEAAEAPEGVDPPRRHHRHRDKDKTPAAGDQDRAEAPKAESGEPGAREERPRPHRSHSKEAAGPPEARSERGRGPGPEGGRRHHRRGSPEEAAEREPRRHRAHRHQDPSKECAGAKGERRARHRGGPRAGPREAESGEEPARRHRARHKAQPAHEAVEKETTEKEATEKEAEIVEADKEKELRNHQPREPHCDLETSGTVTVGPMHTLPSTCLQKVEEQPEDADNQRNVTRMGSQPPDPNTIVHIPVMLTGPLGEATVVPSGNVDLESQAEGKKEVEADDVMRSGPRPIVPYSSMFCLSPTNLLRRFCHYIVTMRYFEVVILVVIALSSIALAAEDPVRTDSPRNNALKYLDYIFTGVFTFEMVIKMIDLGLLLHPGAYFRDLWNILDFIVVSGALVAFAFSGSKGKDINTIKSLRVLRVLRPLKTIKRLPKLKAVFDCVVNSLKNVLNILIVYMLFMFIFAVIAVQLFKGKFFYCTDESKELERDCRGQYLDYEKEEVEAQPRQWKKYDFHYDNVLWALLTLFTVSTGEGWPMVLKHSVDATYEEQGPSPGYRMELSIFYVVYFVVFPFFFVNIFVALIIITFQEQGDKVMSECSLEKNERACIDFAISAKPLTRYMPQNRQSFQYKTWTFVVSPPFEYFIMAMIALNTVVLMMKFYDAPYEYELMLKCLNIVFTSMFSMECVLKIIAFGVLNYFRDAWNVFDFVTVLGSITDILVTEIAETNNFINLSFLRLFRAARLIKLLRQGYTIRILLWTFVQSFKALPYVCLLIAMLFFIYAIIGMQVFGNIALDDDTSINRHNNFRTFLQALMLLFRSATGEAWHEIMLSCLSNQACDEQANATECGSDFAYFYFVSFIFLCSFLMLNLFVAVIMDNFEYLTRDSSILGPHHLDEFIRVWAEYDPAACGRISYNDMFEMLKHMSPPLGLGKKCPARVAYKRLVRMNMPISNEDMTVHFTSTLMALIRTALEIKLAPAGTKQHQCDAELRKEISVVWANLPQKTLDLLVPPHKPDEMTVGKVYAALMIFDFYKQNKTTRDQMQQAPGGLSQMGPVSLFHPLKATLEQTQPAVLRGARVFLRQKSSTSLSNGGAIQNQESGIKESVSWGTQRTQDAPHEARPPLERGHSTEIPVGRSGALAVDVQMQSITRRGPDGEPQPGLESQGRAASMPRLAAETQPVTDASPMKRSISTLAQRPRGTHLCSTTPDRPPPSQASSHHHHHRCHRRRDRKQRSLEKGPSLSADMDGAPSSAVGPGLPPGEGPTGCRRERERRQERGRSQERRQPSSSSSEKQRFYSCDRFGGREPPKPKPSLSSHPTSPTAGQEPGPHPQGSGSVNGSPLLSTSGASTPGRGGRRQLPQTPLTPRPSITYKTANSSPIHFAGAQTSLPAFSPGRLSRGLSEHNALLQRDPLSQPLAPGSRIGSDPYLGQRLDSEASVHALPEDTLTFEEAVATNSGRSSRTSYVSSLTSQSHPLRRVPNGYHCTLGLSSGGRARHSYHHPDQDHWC

IC50, ≤ 1000 nM:
Cn1c(Cl)cc(CON=C2CCN(S(=O)(=O)c3ccc(OC(F)(F)F)cc3)CC2)cc1=O [Example 152, 6-Chloro-1-methyl-4-[1-(4-trifluoromethoxybenzenesulfonyl)piperidin-4-ylideneaminooxymethyl]-1H-pyridin-2-one]
O=S(=O)(c1cccnc1)N1CCC(=NOC(c2ccc(F)cc2)c2ccc(F)cc2)CC1 [Example 291, 1-(Pyridin-3-ylsulfonyl)piperidin-4-one O-bis(4-fluorophenyl)methyl oxime]
N#Cc1ccc(-n2cc(CON=C3CCN(S(=O)(=O)c4ccc(OC(F)(F)F)cc4)CC3)ccc2=O)cc1 [Example 315, 4-(2-oxo-5-((1-(4-(trifluoromethoxy)phenylsulfonyl)piperidin-4-ylideneaminooxy)methyl)pyridin-1(2H)-yl)benzonitrile]
CCCCc1ccc(S(=O)(=O)N2CCC(=NOCc3ccncc3)CC2)cc1 [Example 71, 1-(4-Butylbenzenesulfonyl)piperidin-4-one O-pyridin-4-ylmethyloxime]
CC(ON=C1CCN(S(=O)(=O)c2cccc(C(F)(F)F)c2)CC1)c1ccccc1 (centres unmarked) [Example 276, 1-(3-(Trifluoromethyl)phenylsulfonyl)piperidin-4-one O-1-phenylethyl oxime]
O=S(=O)(c1cccc(C(F)(F)F)c1)N1CCC(=NOC/C=C/c2ccccc2)CC1 [Example 368, 1-(3-(Trifluoromethyl)phenylsulfonyl)piperidin-4-one O-cinnamyl oxime]
O=S(=O)(c1ccc(OC(F)(F)F)cc1)N1CCC(=NOC(c2ccc(F)cc2)C2CC2)CC1 (centres unmarked) [Example 306, 1-(4-(Trifluoromethoxy)phenylsulfonyl)piperidin-4-one O-cyclopropyl(4-fluorophenyl)methyl oxime]
O=S(=O)(c1cccc2cccnc12)N1CCC(=NOC(c2ccc(F)cc2)c2ccc(F)cc2)CC1 [Example 251, 1-(Quinolin-8-ylsulfonyl)piperidin-4-one O-bis(4-fluorophenyl)methyl oxime]
O=c1ccc(C(ON=C2CCN(S(=O)(=O)c3ccc(OC(F)(F)F)cc3)CC2)c2ccc(F)cc2)c[nH]1 (centres unmarked) [Example 214, 5-((4-Fluorophenyl)(1-(4-(trifluoromethoxy)phenylsulfonyl)piperidin-4-ylideneaminooxy)methyl)pyridin-2(1H)-one]
N#Cc1cccc(CON=C2CCN(S(=O)(=O)c3ccc(C(F)(F)F)cc3)CC2)c1 [Example 280, 3-((1-(4-(Trifluoromethyl)phenylsulfonyl)piperidin-4-ylideneaminooxy)methyl)benzonitrile]
O=C(CCC(c1ccc(F)cc1)c1ccc(F)cc1)N1CCC(=NOCc2cccc(C(F)(F)F)c2)CC1 [Example 29, 1-[4,4-Bis-(4-fluorophenyl)butyryl]piperidin-4-one O-(3-trifluoromethylbenzyl)oxime]
O=S(=O)(c1ccccc1F)N1CCC(=NOCc2cccc(C(F)(F)F)c2)CC1 [Example 63, 1-(2-Fluorobenzenesulfonyl)piperidin-4-one O-(3-trifluoromethylbenzyl)oxime]
O=S(=O)(c1cccs1)N1CCC(=NOC(c2ccc(F)cc2)c2ccc(F)cc2)CC1 [Example 252, 1-(Thiophen-2-ylsulfonyl)piperidin-4-one O-bis(4-fluorophenyl)methyl oxime]
CN1CCOc2cc(S(=O)(=O)N3CCC(=NOC(c4ccc(F)cc4)c4ccc(F)cc4)CC3)ccc21 [Example 237, 1-(4-Methyl-3,4-dihydro-2H-benzo[b][1,4]oxazin-7-ylsulfonyl)piperidin-4-one O-bis(4-fluorophenyl)methyl oxime]
O=S(=O)(c1cccc(C(F)(F)F)c1)N1CCC(=NOC(c2ccc(F)cc2)c2ccc(F)cc2)CC1 [Example 285, 1-(3-(Trifluoromethyl)phenylsulfonyl)piperidin-4-one O-bis(4-fluorophenyl)methyl oxime]
O=S(=O)(c1cccc(OC(F)(F)F)c1)N1CCC(=NOC(c2ccc(F)cc2)c2ccc(F)cc2)CC1 [Example 290, 1-(3-(Trifluoromethoxy)phenylsulfonyl)piperidin-4-one O-bis(4-fluorophenyl)methyl oxime]
N#Cc1cc(CON=C2CCN(S(=O)(=O)c3ccc(OC(F)(F)F)cc3)CC2)ccn1 [Example 177, 4-((1-(4-(Trifluoromethoxy)phenylsulfonyl)piperidin-4-ylideneaminooxy)methyl)picolinonitrile]
CCCCc1ccc(S(=O)(=O)N2CCC(=NOCc3ccc(Cl)cc3)CC2)cc1 [Example 72, 1-(4-Butylbenzenesulfonyl)piperidin-4-one O-(4-chlorobenzyl)oxime]
N#Cc1cccc(C(COc2ccc(F)cc2)ON=C2CCN(S(=O)(=O)c3ccc(OC(F)(F)F)cc3)CC2)c1 (centres unmarked) [Example 304, 3-(2-(4-Fluorophenoxy)-1-(1-(4-(trifluoromethoxy)phenylsulfonyl)piperidin-4-ylideneaminooxy)ethyl)benzonitrile]
CCCCc1ccc(S(=O)(=O)N2CCC(=NOC(C)c3cccc(C(F)(F)F)c3)CC2)cc1 (centres unmarked) [Example 74, 1-(4-Butylbenzenesulfonyl)piperidin-4-one O-[1-(3-trifluoromethylphenyl)ethyl]oxime]
COCC(ON=C1CCN(S(=O)(=O)c2ccc(OC(F)(F)F)cc2)CC1)c1cccc(C#N)c1 (centres unmarked) [Example 273, 3-(2-Methoxy-1-(1-(4-(trifluoromethoxy)phenylsulfonyl)piperidin-4-ylideneaminooxy)ethyl)benzonitrile]
COc1cc(CON=C2CCN(S(=O)(=O)c3ccc(OC(F)(F)F)cc3)CC2)nc2ccccc12 [Example 189, 1-(4-(Trifluoromethoxy)phenylsulfonyl)piperidin-4-one O-(4-methoxyquinolin-2-yl)methyl oxime]
N#Cc1cccc(C(ON=C2CCN(S(=O)(=O)c3ccc(OC(F)(F)F)cc3)CC2)c2ccccn2)c1 (centres unmarked) [Example 271, 3-(Pyridin-2-yl(1-(4-(trifluoromethoxy)phenylsulfonyl)piperidin-4-ylideneaminooxy)methyl)benzonitrile]
O=S(=O)(c1ccsc1)N1CCC(=NOC(c2ccc(F)cc2)c2ccc(F)cc2)CC1 [Example 287, 1-(Thiophen-3-ylsulfonyl)piperidin-4-one O-bis(4-fluorophenyl)methyl oxime]
O=S(=O)(c1ccc(OC(F)(F)F)cc1)N1CCC(=NOCc2ccccc2-c2ccccc2)CC1 [Example 311, 1-(4-(Trifluoromethoxy)phenylsulfonyl)piperidin-4-one O-biphenyl-2-ylmethyl oxime]
CCCCc1ccc(S(=O)(=O)N2CCC(=NOCC3CCCCC3)CC2)cc1 [Example 82, 1-(4-Butylbenzenesulfonyl)piperidin-4-one O-cyclohexylmethyloxime]
N#Cc1ccc(S(=O)(=O)N2CCC(=NOCc3cccc(C#N)c3)CC2)cc1 [Example 199]
COc1cccc(CON=C2CCN(S(=O)(=O)c3ccc(OC(F)(F)F)cc3)CC2)n1 [Example 110, 1-(4-Trifluoromethoxybenzenesulfonyl)piperidin-4-one O-(6-methoxypyridin-2-ylmethyl)oxime]
CCCCc1ccc(S(=O)(=O)N2CCC(=NOCc3cccc(Cl)n3)CC2)cc1 [Example 75, 1-(4-Butylbenzenesulfonyl)piperidin-4-one O-(6-chloropyridin-2-ylmethyl)oxime]

— US20090298878A1, “OXIME COMPOUNDS AND THE USE THEREOF” (priority 2006, published 2009)
